Reference: ChEMBL document CHEMBL1208686, “Synthesis and antileishmanial activity of piperoyl-amino acid conjugates” (Eur J Med Chem, 2010)

tested on: PBMC; assay: Cytotoxicity against human PBMC at IC50 concentration after 48 hrs by MTT assay; type: cell-based; details: not given

Structure (SMILES) | Activity [%]
COC(=O)[C@@H](N)CCSC | 1.5
COC(=O)C(CCSC)NC(=O)/C=C/C=C/c1ccc2c(c1)OCO2 (stereo unspecified) | 4
COC(=O)C(Cc1ccc(O)cc1)NC(=O)CCCCc1ccc2c(c1)OCO2 (stereo unspecified) | 5
COC(=O)C(NC(=O)CCCCc1ccc2c(c1)OCO2)C(C)C (stereo unspecified) | 4.5
COC(=O)C(CCSC)NC(=O)CCCCc1ccc2c(c1)OCO2 (stereo unspecified) | 3
COC(=O)C(Cc1c[nH]c2ccccc12)NC(=O)CCCCc1ccc2c(c1)OCO2 (stereo unspecified) | 2.5
COC(=O)[C@@H](N)C(C)C | 4
COC(=O)C(Cc1ccccc1)NC(=O)/C=C/C=C/c1ccc2c(c1)OCO2 (stereo unspecified) | 4
COC(=O)C(Cc1ccc(O)cc1)NC(=O)/C=C/C=C/c1ccc2c(c1)OCO2 (stereo unspecified) | 3.5
COC(=O)C(NC(=O)/C=C/C=C/c1ccc2c(c1)OCO2)C(C)C (stereo unspecified) | 3
COC(=O)C(Cc1c[nH]c2ccccc12)NC(=O)/C=C/C=C/c1ccc2c(c1)OCO2 (stereo unspecified) | 3
O=C(/C=C/C=C/c1ccc2c(c1)OCO2)NC(Cc1ccccc1)C(=O)O (stereo unspecified) | 1.2
O=C(/C=C/C=C/c1ccc2c(c1)OCO2)NC(Cc1ccc(O)cc1)C(=O)O (stereo unspecified) | 4
CC(C)C(NC(=O)/C=C/C=C/c1ccc2c(c1)OCO2)C(=O)O (stereo unspecified) | 5.5
CSCCC(NC(=O)/C=C/C=C/c1ccc2c(c1)OCO2)C(=O)O (stereo unspecified) | 1.8
O=C(/C=C/C=C/c1ccc2c(c1)OCO2)NC(Cc1c[nH]c2ccccc12)C(=O)O (stereo unspecified) | 3.6
COC(=O)C(Cc1ccccc1)NC(=O)CCCCc1ccc2c(c1)OCO2 (stereo unspecified) | 5.5
CCCCCCCCCCCCCCCCOP(=O)([O-])OCC[N+](C)(C)C [MILTEFOSINE] | 29
O=C(O)/C=C/C=C/c1ccc2c(c1)OCO2 [PIPERIC ACID] | 4.5
O=C(/C=C/C=C/c1ccc2c(c1)OCO2)N1CCCCC1 [PIPERINE] | 7
COC(=O)[C@@H](N)Cc1c[nH]c2ccccc12 [TRYPTOPHAN METHYL ESTER] | 1.8
COC(=O)[C@@H](N)Cc1ccc(O)cc1 [TYROSINE METHYL ESTER] | 0.3

tested on: Leishmania donovani; assay: Antileishmanial activity against Leishmania donovani infected in golden Syrian hamsters assessed as reduction of spleen weight at 250 mg/kg, ip administered 20 days after infection for 10 days relative to control; type: functional; design: scale not given: the % may be the effect or the level left; details: route intraperitoneal

Structure (SMILES) | Activity [%]
COC(=O)C(Cc1ccccc1)NC(=O)/C=C/C=C/c1ccc2c(c1)OCO2 (stereo unspecified) | 30

tested on: Leishmania donovani; assay: Antileishmanial activity against Leishmania donovani promastigotes after 48 hrs by MTT assay; type: functional, organism-based; details: not given

Structure (SMILES) | IC50 [µM]
COC(=O)[C@@H](N)CCSC | 1930
COC(=O)C(CCSC)NC(=O)/C=C/C=C/c1ccc2c(c1)OCO2 (stereo unspecified) | 823
COC(=O)C(Cc1ccc(O)cc1)NC(=O)CCCCc1ccc2c(c1)OCO2 (stereo unspecified) | 536
COC(=O)C(NC(=O)CCCCc1ccc2c(c1)OCO2)C(C)C (stereo unspecified) | 722
COC(=O)C(CCSC)NC(=O)CCCCc1ccc2c(c1)OCO2 (stereo unspecified) | 607
COC(=O)C(Cc1c[nH]c2ccccc12)NC(=O)CCCCc1ccc2c(c1)OCO2 (stereo unspecified) | 473
COC(=O)[C@@H](N)C(C)C | 2350
COC(=O)C(Cc1ccccc1)NC(=O)/C=C/C=C/c1ccc2c(c1)OCO2 (stereo unspecified) | 834
COC(=O)C(Cc1ccc(O)cc1)NC(=O)/C=C/C=C/c1ccc2c(c1)OCO2 (stereo unspecified) | 791
COC(=O)C(NC(=O)/C=C/C=C/c1ccc2c(c1)OCO2)C(C)C (stereo unspecified) | 875
COC(=O)C(Cc1c[nH]c2ccccc12)NC(=O)/C=C/C=C/c1ccc2c(c1)OCO2 (stereo unspecified) | 855
O=C(/C=C/C=C/c1ccc2c(c1)OCO2)NC(Cc1ccccc1)C(=O)O (stereo unspecified) | 927
O=C(/C=C/C=C/c1ccc2c(c1)OCO2)NC(Cc1ccc(O)cc1)C(=O)O (stereo unspecified) | 761
CC(C)C(NC(=O)/C=C/C=C/c1ccc2c(c1)OCO2)C(=O)O (stereo unspecified) | 1030
CSCCC(NC(=O)/C=C/C=C/c1ccc2c(c1)OCO2)C(=O)O (stereo unspecified) | 1310
O=C(/C=C/C=C/c1ccc2c(c1)OCO2)NC(Cc1c[nH]c2ccccc12)C(=O)O (stereo unspecified) | 1020
COC(=O)C(Cc1ccccc1)NC(=O)CCCCc1ccc2c(c1)OCO2 (stereo unspecified) | 669
CCCCCCCCCCCCCCCCOP(=O)([O-])OCC[N+](C)(C)C [MILTEFOSINE] | 33
O=C(O)/C=C/C=C/c1ccc2c(c1)OCO2 [PIPERIC ACID] | 1760
O=C(/C=C/C=C/c1ccc2c(c1)OCO2)N1CCCCC1 [PIPERINE] | 2560
COC(=O)[C@@H](N)Cc1c[nH]c2ccccc12 [TRYPTOPHAN METHYL ESTER] | 1370
COC(=O)[C@@H](N)Cc1ccc(O)cc1 [TYROSINE METHYL ESTER] | 2090

tested on: Leishmania donovani; assay: Antileishmanial activity against Leishmania donovani infected in golden Syrian hamsters assessed as reduction of spleen parasitic burden at 12.5 mg/kg, po administered 20 days after infection for 10 days relative to control; type: functional; design: scale not given: the % may be the effect or the level left; details: not given

Structure (SMILES) | Activity [%]
CCCCCCCCCCCCCCCCOP(=O)([O-])OCC[N+](C)(C)C [MILTEFOSINE] | 87

tested on: Leishmania donovani; assay: Antileishmanial activity against Leishmania donovani infected in golden Syrian hamsters assessed as reduction of spleen weight at 250 mg/kg, ip administered 20 days after infection for 10 days (reference value: 503 +/- 34 mg); type: functional; details: route intraperitoneal

Structure (SMILES) | Activity [mg]
COC(=O)C(Cc1ccccc1)NC(=O)/C=C/C=C/c1ccc2c(c1)OCO2 (stereo unspecified) | 353
COC(=O)C(NC(=O)/C=C/C=C/c1ccc2c(c1)OCO2)C(C)C (stereo unspecified) | 516

tested on: Leishmania donovani; assay: Antileishmanial activity against Leishmania donovani infected in golden Syrian hamsters assessed as reduction of spleen weight at 12.5 mg/kg, po administered 20 days after infection for 10 days (reference value: 503 +/- 34 mg); type: functional; details: not given

Structure (SMILES) | Activity [mg]
CCCCCCCCCCCCCCCCOP(=O)([O-])OCC[N+](C)(C)C [MILTEFOSINE] | 287

tested on: PBMC; assay: Cytotoxicity against human PBMC at 2 times IC50 concentration after 48 hrs by MTT assay; type: cell-based; details: not given

Structure (SMILES) | Activity [%]
COC(=O)[C@@H](N)CCSC | 7.3
COC(=O)C(CCSC)NC(=O)/C=C/C=C/c1ccc2c(c1)OCO2 (stereo unspecified) | 7.5
COC(=O)C(Cc1ccc(O)cc1)NC(=O)CCCCc1ccc2c(c1)OCO2 (stereo unspecified) | 7.6
COC(=O)C(NC(=O)CCCCc1ccc2c(c1)OCO2)C(C)C (stereo unspecified) | 7.7
COC(=O)C(CCSC)NC(=O)CCCCc1ccc2c(c1)OCO2 (stereo unspecified) | 5
COC(=O)C(Cc1c[nH]c2ccccc12)NC(=O)CCCCc1ccc2c(c1)OCO2 (stereo unspecified) | 5
COC(=O)[C@@H](N)C(C)C | 6
COC(=O)C(Cc1ccccc1)NC(=O)/C=C/C=C/c1ccc2c(c1)OCO2 (stereo unspecified) | 7
COC(=O)C(Cc1ccc(O)cc1)NC(=O)/C=C/C=C/c1ccc2c(c1)OCO2 (stereo unspecified) | 6
COC(=O)C(NC(=O)/C=C/C=C/c1ccc2c(c1)OCO2)C(C)C (stereo unspecified) | 3.8
COC(=O)C(Cc1c[nH]c2ccccc12)NC(=O)/C=C/C=C/c1ccc2c(c1)OCO2 (stereo unspecified) | 5.2
O=C(/C=C/C=C/c1ccc2c(c1)OCO2)NC(Cc1ccccc1)C(=O)O (stereo unspecified) | 8.5
O=C(/C=C/C=C/c1ccc2c(c1)OCO2)NC(Cc1ccc(O)cc1)C(=O)O (stereo unspecified) | 6
CC(C)C(NC(=O)/C=C/C=C/c1ccc2c(c1)OCO2)C(=O)O (stereo unspecified) | 9
CSCCC(NC(=O)/C=C/C=C/c1ccc2c(c1)OCO2)C(=O)O (stereo unspecified) | 7.7
O=C(/C=C/C=C/c1ccc2c(c1)OCO2)NC(Cc1c[nH]c2ccccc12)C(=O)O (stereo unspecified) | 10
COC(=O)C(Cc1ccccc1)NC(=O)CCCCc1ccc2c(c1)OCO2 (stereo unspecified) | 7.2
CCCCCCCCCCCCCCCCOP(=O)([O-])OCC[N+](C)(C)C [MILTEFOSINE] | 35
O=C(O)/C=C/C=C/c1ccc2c(c1)OCO2 [PIPERIC ACID] | 8
O=C(/C=C/C=C/c1ccc2c(c1)OCO2)N1CCCCC1 [PIPERINE] | 10
COC(=O)[C@@H](N)Cc1c[nH]c2ccccc12 [TRYPTOPHAN METHYL ESTER] | 5.3
COC(=O)[C@@H](N)Cc1ccc(O)cc1 [TYROSINE METHYL ESTER] | 5

tested on: Leishmania donovani; assay: Antileishmanial activity against Leishmania donovani infected in golden Syrian hamsters assessed as reduction of spleen parasitic burden at 250 mg/kg, ip administered 20 days after infection for 10 days relative to control; type: functional; design: scale not given: the % may be the effect or the level left; details: route intraperitoneal

Structure (SMILES) | Activity [%]
COC(=O)C(Cc1ccccc1)NC(=O)/C=C/C=C/c1ccc2c(c1)OCO2 (stereo unspecified) | 35
COC(=O)C(NC(=O)/C=C/C=C/c1ccc2c(c1)OCO2)C(C)C (stereo unspecified) | 24

tested on: Leishmania donovani; assay: Antileishmanial activity against Leishmania donovani infected in golden Syrian hamsters assessed as reduction of spleen weight at 12.5 mg/kg, po administered 20 days after infection for 10 days relative to control; type: functional; design: scale not given: the % may be the effect or the level left; details: not given

Structure (SMILES) | Activity [%]
CCCCCCCCCCCCCCCCOP(=O)([O-])OCC[N+](C)(C)C [MILTEFOSINE] | 43

tested on: Leishmania donovani; assay: Antileishmanial activity against Leishmania donovani amastigotes after 48 hrs by MTT assay; type: functional, organism-based; details: not given

Structure (SMILES) | IC50 [µM]
COC(=O)[C@@H](N)CCSC | 1900
COC(=O)C(CCSC)NC(=O)/C=C/C=C/c1ccc2c(c1)OCO2 (stereo unspecified) | 168
COC(=O)C(Cc1ccc(O)cc1)NC(=O)CCCCc1ccc2c(c1)OCO2 (stereo unspecified) | 202
COC(=O)C(NC(=O)CCCCc1ccc2c(c1)OCO2)C(C)C (stereo unspecified) | 240
COC(=O)C(CCSC)NC(=O)CCCCc1ccc2c(c1)OCO2 (stereo unspecified) | 221
COC(=O)C(Cc1c[nH]c2ccccc12)NC(=O)CCCCc1ccc2c(c1)OCO2 (stereo unspecified) | 176
COC(=O)[C@@H](N)C(C)C | 1760
COC(=O)C(Cc1ccccc1)NC(=O)/C=C/C=C/c1ccc2c(c1)OCO2 (stereo unspecified) | 197
COC(=O)C(Cc1ccc(O)cc1)NC(=O)/C=C/C=C/c1ccc2c(c1)OCO2 (stereo unspecified) | 210
COC(=O)C(NC(=O)/C=C/C=C/c1ccc2c(c1)OCO2)C(C)C (stereo unspecified) | 75
COC(=O)C(Cc1c[nH]c2ccccc12)NC(=O)/C=C/C=C/c1ccc2c(c1)OCO2 (stereo unspecified) | 119
O=C(/C=C/C=C/c1ccc2c(c1)OCO2)NC(Cc1ccccc1)C(=O)O (stereo unspecified) | 256
O=C(/C=C/C=C/c1ccc2c(c1)OCO2)NC(Cc1ccc(O)cc1)C(=O)O (stereo unspecified) | 249
CC(C)C(NC(=O)/C=C/C=C/c1ccc2c(c1)OCO2)C(=O)O (stereo unspecified) | 310
CSCCC(NC(=O)/C=C/C=C/c1ccc2c(c1)OCO2)C(=O)O (stereo unspecified) | 237
O=C(/C=C/C=C/c1ccc2c(c1)OCO2)NC(Cc1c[nH]c2ccccc12)C(=O)O (stereo unspecified) | 236
COC(=O)C(Cc1ccccc1)NC(=O)CCCCc1ccc2c(c1)OCO2 (stereo unspecified) | 212
CCCCCCCCCCCCCCCCOP(=O)([O-])OCC[N+](C)(C)C [MILTEFOSINE] | 18
O=C(O)/C=C/C=C/c1ccc2c(c1)OCO2 [PIPERIC ACID] | 395
O=C(/C=C/C=C/c1ccc2c(c1)OCO2)N1CCCCC1 [PIPERINE] | 752
COC(=O)[C@@H](N)Cc1c[nH]c2ccccc12 [TRYPTOPHAN METHYL ESTER] | 1420
COC(=O)[C@@H](N)Cc1ccc(O)cc1 [TYROSINE METHYL ESTER] | 1400
